Experimental findings from ChEMBL document CHEMBL2146462, “Tyrosinase inhibitory activity of a 6-isoprenoid-substituted flavanone isolated from Dalea elegans” (Bioorg Med Chem, 2011) are described below.

The structures appear in SMILES notation. pIC50, pKi: −log10 of the molar value. Activity calls are given as the source filed them. No cut-off for these calls is given here.

Test [1] addresses T1, Tyrosinase (Agaricus bisporus, UniProt O42713).
T1 sequence (O42713 whole entry): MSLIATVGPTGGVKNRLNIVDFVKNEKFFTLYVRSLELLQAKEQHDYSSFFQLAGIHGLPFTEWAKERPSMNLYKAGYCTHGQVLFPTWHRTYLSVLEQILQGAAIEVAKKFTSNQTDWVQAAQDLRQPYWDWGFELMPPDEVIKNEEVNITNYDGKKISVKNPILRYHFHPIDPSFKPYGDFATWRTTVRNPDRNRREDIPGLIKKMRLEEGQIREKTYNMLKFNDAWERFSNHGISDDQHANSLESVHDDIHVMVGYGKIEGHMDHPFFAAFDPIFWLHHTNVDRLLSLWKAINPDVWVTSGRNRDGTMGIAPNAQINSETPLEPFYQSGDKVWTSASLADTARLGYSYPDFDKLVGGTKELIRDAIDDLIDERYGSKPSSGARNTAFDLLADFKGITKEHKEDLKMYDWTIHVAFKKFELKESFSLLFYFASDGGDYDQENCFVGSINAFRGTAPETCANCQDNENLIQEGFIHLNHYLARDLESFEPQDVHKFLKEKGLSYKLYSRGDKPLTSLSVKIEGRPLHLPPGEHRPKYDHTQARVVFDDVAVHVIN
Description: Inhibition of mushroom tyrosinase using as L-DOPA substrate after 2 mins by spectrophotometric analysis

For test [2], the target named is T1, Tyrosinase. This is another data set of the same source.
Test [3] has as its target T1, Tyrosinase. The source holds these as a separate data set.
Description: Inhibition of mushroom tyrosinase using as L-tyrosine substrate after 10 mins by spectrophotometric analysis
The target of test [4] is T2, Tyrosinase (Agaricus bisporus) (UniProt O42713).
T2 sequence (whole entry): T1 sequence (O42713 whole entry)
The test is described as follows: Potency index, ratio IC50 for arbutin to compound against mushroom tyrosinase assessed as inhibition constant for compound-free enzyme using as L-tyrosine substrate by spectrophotometric analysis.

The target of test [5] is T2, Tyrosinase (Agaricus bisporus). The test is described as follows: Inhibition of mushroom tyrosinase assessed as lag time for L-tyrosine oxidation at 5.51 uM by spectrophotometric analysis.
Test [6] shares this target. The test is described as follows: Potency index, ratio IC50 for (Z,Z)-5-trideca-4,7-dienyl)-resorcinol to compound against mushroom tyrosinase assessed as inhibition constant for compound-free enzyme using as L-tyrosine substrate by spectrophotometric analysis.
For test [7] the target is unchanged. The test is described as follows: Potency index, ratio IC50 for hydroquinone to compound against mushroom tyrosinase using as […] substrate after 10 mins by spectrophotometric analysis.
Test [8] has the same target. The test is described as follows: Reversible inhibition of mushroom tyrosinase using L-DOPA substrate by spectrophotometric analysis.
A short description of test [9]: Metal chelating activity of the compound assessed as formation of copper complex at 84.66 uM after 1 min by UV-vis spectroscopy. The class given is functional.
In test [10] the target is T2, Tyrosinase (Agaricus bisporus). The test is described as follows: Potency index, ratio IC50 for ascorbic acid to compound against mushroom tyrosinase assessed as inhibition constant for compound-free enzyme using as L-tyrosine substrate by spectrophotometric analysis.
For test [11] the target is unchanged. The test is described as follows: Inhibition of mushroom tyrosinase assessed as reduction in reaction rate of L-tyrosine oxidation by spectrophotometric analysis.
Test [12] has the same target. In words: Potency index, ratio IC50 for hydroquinone to compound against mushroom tyrosinase using as L-tyrosine substrate after 10 mins by spectrophotometric analysis.
For test [13] the target is unchanged. The test is described as follows: […] mixed-I type inhibition of mushroom tyrosinase using L-tyrosine substrate by Lineweaver-Burk double reciprocal plot analysis.
Test [14] deals with T1, Tyrosinase. The test is described as follows: Inhibition of mushroom tyrosinase assessed as inhibition constant for compound-enzyme-substrate complex using as L-tyrosine substrate by spectrophotometric analysis.
Test [15] deals with T2, Tyrosinase (Agaricus bisporus). In words: Potency index, ratio Ki for kojic acid to compound against mushroom tyrosinase assessed as inhibition constant for compound-free enzyme using as L-tyrosine substrate by spectrophotometric analysis.
Test [16] has the same target. In words: Competitive inhibition of mushroom tyrosinase using L-tyrosine substrate by Lineweaver-Burk double reciprocal plot analysis.
Test [17] has the same target. The test is described as follows: Reversible inhibition of mushroom tyrosinase using L-tyrosine substrate by spectrophotometric analysis.
The target is the same in test [18]. The test is described as follows: Potency index, ratio Ki for kojic acid to compound against mushroom tyrosinase diphenolase activity.
The target is the same in test [19]. In words: Noncompetitive inhibition of mushroom tyrosinase using […] substrate by Lineweaver-Burk double reciprocal plot analysis.
Test [20] deals with T1, Tyrosinase. The test is described as follows: Inhibition of mushroom tyrosinase assessed as inhibition constant for compound-free enzyme using as […] substrate by spectrophotometric analysis.
Test [21] has as its target T1, Tyrosinase. In words: Inhibition of mushroom tyrosinase assessed as inhibition constant for compound-free enzyme using as L-tyrosine substrate by spectrophotometric analysis.
The target of test [22] is T2, Tyrosinase (Agaricus bisporus). The test is described as follows: Potency index, ratio IC50 for kojic acid to compound against mushroom tyrosinase using as L-tyrosine substrate after 10 mins by spectrophotometric analysis.
For test [23], the target named is T1, Tyrosinase. The test is described as follows: Inhibition of mushroom tyrosinase assessed as inhibition constant for compound-enzyme-substrate complex using as […] substrate by spectrophotometric analysis.

On to `CCCCC/C=C\C/C=C\CCCc1cc(O)cc(O)c1`, for which the pIC50 – broadly, −log10 of the IC50, conventionally taken in molar units – against Tyrosinase [1] is 4.29; against Tyrosinase [2] it was 5.77.

As to `CC1(C)C=Cc2c(cc3c(c2O)C(=O)CC(c2ccc(O)cc2O)O3)O1` (centres undefined) [DALENIN], the pIC50 against Tyrosinase [3] was 6.59; against Tyrosinase [1], 4.73. For the same molecule, the Ratio IC50 in test [4] was 285; in test [6] it was 3; in test [7], 59; in [10] it was 7; in test [12], 52; in [22], 495. The TIME in test [5] turned out to be 0.167 h. Further, the inhibition result in test [8], in test [11], in test [13], in [16], in [17] and in [19] was “Active” in each case. For the same molecule, in test [9], the result was Active. Further, the pKi – broadly, the negative decadic logarithm of the Ki, by convention in mol/L – is 5.12 at Tyrosinase [14], 3.80 on Tyrosinase [20], 5.70 on Tyrosinase [21] and 3.80 on Tyrosinase [23]. Further, the Ratio Ki in [15] was 15; in test [18], 8.

As to `Oc1ccc(O)cc1` [HYDROQUINONE], the values for the pIC50 on Tyrosinase [3] and on Tyrosinase [1] were 4.87 and 2.96, respectively.

At Tyrosinase [2], `O=S([O-])O.[Na+]` [SODIUM BISULFITE] gave a pIC50 of 3.68.

For the molecule `O=C1CC(c2ccc(O)cc2O)Oc2cc(O)cc(O)c21` (centres undefined) [STEPPOGENIN], the figures for the pIC50 against Tyrosinase [3] and at Tyrosinase [1] were 5.89 and 4.58, respectively.
